Laboratory results taken from patent US20240280589A1, “USE OF FIBRONECTIN IN PREDICTING PREECLAMPSIA” (Sinai Health System, priority 2023, published 2024).

What was measured:
Type in all cases: cell-based, human
preeclampsia pMSCs = test: Exposure of preeclampsia placental mesenchymal stromal cells (pMSCs)
JEG3 cells [1] = test: Immunofluorescence co-localization of fibronectin with CD63/RAB7 in JEG3 cells
JEG3 cells [2] = test: Western blot for fibronectin in sEVs from JEG3 cell conditioned media
Method: Subsequent Western blotting was performed.

[3] = system: placental villous explants; test: Fibronectin in sEVs from placental villous explant culture; conditions: E-PE villous explants maintained at 3% O2, Hinokitiol
Method: Villous explants were isolated and cultured in 12-well plates with mesh inserts, from term control (n=3) and E-PE placentae (n=3). Term explants were maintained at normoxia (8% O2) or hypoxia (3% O2), while E-PE explants were maintained at 3% O2 (constituting their normoxia) and treated with […] Hinokitiol. Following incubation with their respective treatments, explant tissue was snap-frozen in liquid nitrogen for protein extraction and downstream analyses, while small extracellular vesicles (sEVs) were isolated from conditioned media by ultrafiltration using Amicon® Ultra-4 Centrifugal Filter Units (UFC8100, Millipore Sigma). […] Subsequent Western blotting was performed.

## CC(C)c1cccc(=O)c(O)c1 [Hinokitiol]
Preeclampsia pMSCs
  fibronectin fibrillar deposition: improved
  labile (useable) intracellular iron pool: restored
JEG3 cells [1]; 3% O2 + 1 μM Hinokitiol
  Pearson's Correlation Coefficient between fibronectin and CD63: 0.31
JEG3 cells [1]; 3% O2, relative to hypoxia alone
  fibronectin co-localization with late endosomal marker RAB7 and sEV marker CD63: attenuated fibronectin co-localization
JEG3 cells [2]; JEG3 cells at 3% O2, 24 hours, 1 μM, normalized to CD63
  sEV fibronectin content: significantly reduced sEV fibronectin content to control levels
JEG3 cells [2]; JEG3 cells at 21% O2
  sEV fibronectin levels: no discernible effect
[3]
  fibronectin increase in explant-derived sEVs: attenuated
